Data set [1] deals with T1, Metabotropic glutamate receptor 2 (Homo sapiens, UniProt Q14416). The data set is described as follows: Negative allosteric modulation of mGlu2 by cell-based assay.
In data set [2] the target is T2, Metabotropic glutamate receptor 3 (Homo sapiens, UniProt Q14832). The experiment in a line: Negative allosteric modulation of mGlu3 by cell-based assay.
Target sequence in this assay (Q14832 whole entry): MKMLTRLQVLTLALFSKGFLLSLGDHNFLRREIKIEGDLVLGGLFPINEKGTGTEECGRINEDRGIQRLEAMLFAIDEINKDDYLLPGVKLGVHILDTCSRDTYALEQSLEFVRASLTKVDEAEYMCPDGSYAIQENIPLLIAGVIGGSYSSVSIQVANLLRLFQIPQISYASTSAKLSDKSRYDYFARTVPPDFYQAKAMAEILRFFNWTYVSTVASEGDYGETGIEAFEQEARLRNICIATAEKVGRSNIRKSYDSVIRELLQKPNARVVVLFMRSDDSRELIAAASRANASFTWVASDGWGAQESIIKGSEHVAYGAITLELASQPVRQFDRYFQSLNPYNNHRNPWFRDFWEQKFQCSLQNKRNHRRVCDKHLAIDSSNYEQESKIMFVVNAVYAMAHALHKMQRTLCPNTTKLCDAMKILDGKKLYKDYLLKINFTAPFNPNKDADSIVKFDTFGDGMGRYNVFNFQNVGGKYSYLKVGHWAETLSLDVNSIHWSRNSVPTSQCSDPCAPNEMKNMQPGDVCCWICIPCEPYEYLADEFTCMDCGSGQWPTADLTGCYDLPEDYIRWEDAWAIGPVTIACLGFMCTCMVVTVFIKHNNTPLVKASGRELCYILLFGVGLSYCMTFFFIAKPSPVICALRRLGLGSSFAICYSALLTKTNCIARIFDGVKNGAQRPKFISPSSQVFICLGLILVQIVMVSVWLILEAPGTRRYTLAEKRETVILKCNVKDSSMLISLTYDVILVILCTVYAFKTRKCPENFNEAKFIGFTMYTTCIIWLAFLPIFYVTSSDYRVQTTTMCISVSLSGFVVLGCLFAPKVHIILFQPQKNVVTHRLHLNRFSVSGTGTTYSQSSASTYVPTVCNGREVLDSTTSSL
In data set [3] the target is T2, Metabotropic glutamate receptor 3. The data set is described as follows: Negative allosteric modulation of mGlu3 assessed as thallium flux through GIRK channels by cell-based assay.
Target sequence in this assay (Q14832 whole entry): as above
Data set [4] has the same target. The data set is described as follows: Negative allosteric modulation of mGlu3 assessed as inhibition of glutamate-induced thallium flux through GIRK channels by cell-based assay. Set-up: concentration or dose not given beside the values. To be noted: concentration not given here.
Target sequence in this assay (Q14832 23-879 limits assumed): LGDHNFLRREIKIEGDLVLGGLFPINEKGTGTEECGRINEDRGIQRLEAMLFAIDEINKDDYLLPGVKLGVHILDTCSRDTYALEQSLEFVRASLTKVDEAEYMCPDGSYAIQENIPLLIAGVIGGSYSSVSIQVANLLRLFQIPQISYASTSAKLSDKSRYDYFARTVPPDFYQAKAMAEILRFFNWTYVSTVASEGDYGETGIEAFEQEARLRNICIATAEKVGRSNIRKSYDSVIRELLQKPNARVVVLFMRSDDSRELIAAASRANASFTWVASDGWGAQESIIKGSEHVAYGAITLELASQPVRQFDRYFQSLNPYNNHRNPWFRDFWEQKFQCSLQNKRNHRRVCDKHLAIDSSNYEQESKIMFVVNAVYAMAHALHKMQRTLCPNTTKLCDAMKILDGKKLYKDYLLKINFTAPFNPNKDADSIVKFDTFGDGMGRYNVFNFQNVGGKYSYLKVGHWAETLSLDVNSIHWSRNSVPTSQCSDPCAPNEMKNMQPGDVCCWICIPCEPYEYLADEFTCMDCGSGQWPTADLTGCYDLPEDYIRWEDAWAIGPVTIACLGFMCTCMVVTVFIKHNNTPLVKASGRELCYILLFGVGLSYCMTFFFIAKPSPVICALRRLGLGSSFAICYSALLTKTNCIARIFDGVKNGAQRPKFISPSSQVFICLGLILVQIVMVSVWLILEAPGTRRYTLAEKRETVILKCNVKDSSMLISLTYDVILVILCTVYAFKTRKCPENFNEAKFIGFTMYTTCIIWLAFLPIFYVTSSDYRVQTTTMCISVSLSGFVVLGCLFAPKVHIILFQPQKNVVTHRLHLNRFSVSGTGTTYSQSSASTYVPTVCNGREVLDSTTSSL
For data set [5], the target named is T3, Metabotropic glutamate receptor 5 (Rattus norvegicus, UniProt P31424). The experiment in a line: Positive allosteric modulation of rat mGlu5 expressed in HEK293 cells in presence of glutamate EC20 concentration by Fluo-2AM dye based fluorescence analysis. It is filed as cell-based.
Target sequence in this assay (P31424 whole entry): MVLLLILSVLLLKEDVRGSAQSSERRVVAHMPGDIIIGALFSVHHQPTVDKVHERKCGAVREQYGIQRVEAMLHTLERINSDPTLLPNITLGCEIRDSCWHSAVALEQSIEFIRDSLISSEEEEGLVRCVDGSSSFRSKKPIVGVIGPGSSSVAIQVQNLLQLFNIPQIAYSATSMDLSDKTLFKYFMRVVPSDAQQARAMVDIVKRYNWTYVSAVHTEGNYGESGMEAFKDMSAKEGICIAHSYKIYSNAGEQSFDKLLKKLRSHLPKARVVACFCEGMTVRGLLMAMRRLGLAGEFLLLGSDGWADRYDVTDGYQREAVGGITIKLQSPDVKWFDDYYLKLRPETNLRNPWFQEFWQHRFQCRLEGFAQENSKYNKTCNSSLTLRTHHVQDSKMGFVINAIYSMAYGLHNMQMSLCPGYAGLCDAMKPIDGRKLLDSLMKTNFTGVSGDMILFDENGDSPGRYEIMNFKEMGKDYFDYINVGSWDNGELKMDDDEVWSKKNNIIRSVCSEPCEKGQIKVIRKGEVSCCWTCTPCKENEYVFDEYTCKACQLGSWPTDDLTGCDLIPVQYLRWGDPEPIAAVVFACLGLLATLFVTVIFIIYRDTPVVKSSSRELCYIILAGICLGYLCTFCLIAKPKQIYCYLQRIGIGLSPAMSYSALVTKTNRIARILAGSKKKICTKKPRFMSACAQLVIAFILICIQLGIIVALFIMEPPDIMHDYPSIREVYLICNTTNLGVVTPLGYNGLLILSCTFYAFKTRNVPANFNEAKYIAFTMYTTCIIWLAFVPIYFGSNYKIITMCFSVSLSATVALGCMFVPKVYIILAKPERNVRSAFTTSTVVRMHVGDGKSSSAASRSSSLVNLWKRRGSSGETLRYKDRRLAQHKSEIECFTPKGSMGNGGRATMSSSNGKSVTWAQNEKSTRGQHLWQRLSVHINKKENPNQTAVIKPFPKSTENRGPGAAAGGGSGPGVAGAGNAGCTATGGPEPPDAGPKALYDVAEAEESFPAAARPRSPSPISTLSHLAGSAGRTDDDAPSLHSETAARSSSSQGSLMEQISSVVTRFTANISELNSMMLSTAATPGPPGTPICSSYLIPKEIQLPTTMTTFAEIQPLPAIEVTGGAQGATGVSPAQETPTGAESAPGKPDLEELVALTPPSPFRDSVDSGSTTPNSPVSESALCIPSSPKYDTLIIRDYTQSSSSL
Data set [6] has as its target Metabotropic glutamate receptor 3 (Rattus norvegicus, UniProt P31422). The experiment in a line: Negative allosteric modulation of rat mGlu3 assessed as assessed as thallium flux through GIRK channels by cell-based assay.
The next data set deals with T4, Cytochrome P450 1A2 (Homo sapiens, UniProt P05177).
T4 sequence (P05177 whole entry): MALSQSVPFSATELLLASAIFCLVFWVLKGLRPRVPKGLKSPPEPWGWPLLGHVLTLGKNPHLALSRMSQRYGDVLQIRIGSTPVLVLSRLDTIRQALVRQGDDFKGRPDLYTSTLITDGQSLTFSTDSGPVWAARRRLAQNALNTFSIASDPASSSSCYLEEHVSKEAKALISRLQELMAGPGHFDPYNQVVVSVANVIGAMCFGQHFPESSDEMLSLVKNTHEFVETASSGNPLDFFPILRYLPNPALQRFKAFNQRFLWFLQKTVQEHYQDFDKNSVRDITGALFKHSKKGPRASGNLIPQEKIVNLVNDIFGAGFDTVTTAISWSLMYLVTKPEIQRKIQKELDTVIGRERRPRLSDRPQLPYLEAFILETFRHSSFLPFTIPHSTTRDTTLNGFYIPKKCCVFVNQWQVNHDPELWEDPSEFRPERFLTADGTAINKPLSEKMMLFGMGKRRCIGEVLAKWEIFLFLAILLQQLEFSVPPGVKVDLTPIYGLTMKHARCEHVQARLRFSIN
The data set is described as follows: Inhibition of CYP1A2 in human liver microsomes. In kind it is ADME, Microsome. For orientation: Liver microsomes are vesicles of endoplasmic reticulum, rich in cytochrome P450 enzymes.

The subject of another data set is Nucleic Acid. The experiment in a line: Ratio of drug level in brain to plasma of rat at 10 mg/kg. It is filed as ADME, organism-based. Also on record: dose 10 mg/kg.
A short description of data set [7]: Selectivity index, ratio IC50 for mGlu2 to IC50 for mGlu3.
Data set [8] in a line: Drug metabolism in human liver microsome assessed as CYP450-mediated (R)-(3-(hydroxymethyl)piperidin-1-yl)(4-((4-hydroxyphenyl)ethynyl)phenyl)methanone formation. It is filed as ADME. The note with it: microsomes.
The nature of data set [9]: Clearance in rat at 1 mg/kg, iv. In kind it is ADME, organism-based. Set-up: dose 1 mg/kg, route intravenous. To be noted: in vivo.
Data set [10] is described as follows: Volume of distribution at steady-state concentration in rat at 1 mg/kg, iv. Also on record: dose 1 mg/kg, route intravenous. To be noted: in vivo, read-out: Vdss. It is filed as ADME, organism-based.
For data set [11], the target named is T3, Metabotropic glutamate receptor 5. The experiment in a line: Negative allosteric modulation of mGlu5 assessed as inhibition of glutamate-induced calcium mobilization by cell based assay. It is filed as functional.
Target sequence in this assay (P31424 whole entry, looked up): as the sequence (P31424 whole entry) above
Data set [12] concerns the target T2, Metabotropic glutamate receptor 3. The data set is described as follows: Negative allosteric modulation of mGlu3 assessed as inhibition of glutamate-induced calcium mobilization in presence of Galpha15 by cell based assay. It is filed as functional. Background: A change in cytosolic calcium serves as a functional read-out for many receptors and channels.
Target sequence in this assay (Q14832 whole entry): as the sequence (Q14832 whole entry) above
The target of data set [13] is T3, Metabotropic glutamate receptor 5. The data set is described as follows: Positive allosteric modulation of mGlu5 assessed as potentiation of glutamate-induced calcium mobilization by cell based assay. In kind it is functional.
Target sequence in this assay (P31424 whole entry, looked up): as the sequence (P31424 whole entry) above
The next data set relates to Brain. The data set is described as follows: Drug level in rat brain at 10 mg/kg. It is filed as ADME, organism-based. Also on record: dose 10 mg/kg. To be noted: in vivo, read-out: Drug uptake.
The target in another data set is Cytochrome P450 2D6 (Homo sapiens, UniProt P10635). The experiment in a line: Inhibition of CYP2D6 in human liver microsomes. It is filed as ADME, Microsome.
For another data set, the target named is Cytochrome P450 2C9 (Homo sapiens, UniProt P11712). The data set is described as follows: Inhibition of CYP2C9 in human liver microsomes. It is filed as ADME, Microsome.
The nature of data set [14]: Fraction unbound in rat plasma. It is filed as ADME, cell-free.
Data set [15] is described as follows: Drug metabolism in rat liver microsome assessed as CYP450-mediated (R)-(3-(hydroxymethyl)piperidin-1-yl)(4-((4-hydroxyphenyl)ethynyl)phenyl)methanone formation. It is filed as ADME. To be noted: microsomes.
The next data set relates to Plasma. The experiment in a line: Plasma concentration in rat at 10 mg/kg. Also on record: dose 10 mg/kg. To be noted: in vivo. It is filed as ADME, organism-based.
The nature of data set [16]: Half life in rat at 1 mg/kg, iv. In kind it is ADME, organism-based. Also on record: dose 1 mg/kg, route intravenous. The note with it: in vivo.
A short description of data set [17]: Fraction unbound in human plasma. It is filed as ADME, cell-free.
The target of the next data set is Cytochrome P450 3A4 (Homo sapiens, UniProt P08684). The experiment in a line: Inhibition of CYP3A4 in human liver microsomes. In kind it is ADME, Microsome.
The target of data set [18] is T2, Metabotropic glutamate receptor 3. The experiment in a line: Negative allosteric modulation of human mGlu3 expressed in AV-12 cells in presence of glutamate EC90 concentration by FLIPR assay. In kind it is cell-based, AV12.
Target sequence in this assay (Q14832 whole entry): as the sequence (Q14832 whole entry) above
In data set [19] the target is T1, Metabotropic glutamate receptor 2. The experiment in a line: Negative allosteric modulation of human mGlu2 expressed in AV-12 cells in presence of glutamate EC90 concentration by FLIPR assay. It is filed as cell-based, AV12.
For data set [20] the target is unchanged. The experiment in a line: Negative allosteric modulation of mGlu2 assessed as thallium flux through GIRK channels by cell-based assay.

This note sets out measurements from ChEMBL document CHEMBL2203026.

Structures are written as SMILES.

T1 sequence (Q14416 whole entry): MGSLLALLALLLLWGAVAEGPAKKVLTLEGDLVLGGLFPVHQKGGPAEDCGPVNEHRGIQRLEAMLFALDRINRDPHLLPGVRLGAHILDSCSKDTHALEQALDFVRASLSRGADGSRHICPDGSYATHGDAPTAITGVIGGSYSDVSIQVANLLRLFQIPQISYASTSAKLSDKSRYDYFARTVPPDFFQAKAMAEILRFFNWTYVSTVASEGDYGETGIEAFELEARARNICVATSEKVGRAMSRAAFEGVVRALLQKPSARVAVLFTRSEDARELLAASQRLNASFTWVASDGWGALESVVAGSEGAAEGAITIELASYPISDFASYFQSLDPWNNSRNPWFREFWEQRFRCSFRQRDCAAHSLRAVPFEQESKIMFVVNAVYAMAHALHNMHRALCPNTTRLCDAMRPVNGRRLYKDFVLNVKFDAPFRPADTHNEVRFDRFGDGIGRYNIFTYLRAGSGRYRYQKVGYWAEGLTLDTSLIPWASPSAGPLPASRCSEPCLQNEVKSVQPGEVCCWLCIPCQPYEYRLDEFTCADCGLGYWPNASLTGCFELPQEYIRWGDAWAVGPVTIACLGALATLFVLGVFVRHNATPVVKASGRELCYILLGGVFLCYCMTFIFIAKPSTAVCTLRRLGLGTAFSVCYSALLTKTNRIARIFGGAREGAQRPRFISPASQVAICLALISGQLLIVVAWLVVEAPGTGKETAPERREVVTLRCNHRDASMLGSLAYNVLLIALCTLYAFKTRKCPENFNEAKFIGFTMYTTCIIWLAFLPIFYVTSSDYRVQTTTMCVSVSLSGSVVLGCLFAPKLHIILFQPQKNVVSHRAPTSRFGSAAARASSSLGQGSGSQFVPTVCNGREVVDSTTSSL
Metabotropic glutamate receptor 3 (Rattus norvegicus, UniProt P31422), sequence (P31422 whole entry): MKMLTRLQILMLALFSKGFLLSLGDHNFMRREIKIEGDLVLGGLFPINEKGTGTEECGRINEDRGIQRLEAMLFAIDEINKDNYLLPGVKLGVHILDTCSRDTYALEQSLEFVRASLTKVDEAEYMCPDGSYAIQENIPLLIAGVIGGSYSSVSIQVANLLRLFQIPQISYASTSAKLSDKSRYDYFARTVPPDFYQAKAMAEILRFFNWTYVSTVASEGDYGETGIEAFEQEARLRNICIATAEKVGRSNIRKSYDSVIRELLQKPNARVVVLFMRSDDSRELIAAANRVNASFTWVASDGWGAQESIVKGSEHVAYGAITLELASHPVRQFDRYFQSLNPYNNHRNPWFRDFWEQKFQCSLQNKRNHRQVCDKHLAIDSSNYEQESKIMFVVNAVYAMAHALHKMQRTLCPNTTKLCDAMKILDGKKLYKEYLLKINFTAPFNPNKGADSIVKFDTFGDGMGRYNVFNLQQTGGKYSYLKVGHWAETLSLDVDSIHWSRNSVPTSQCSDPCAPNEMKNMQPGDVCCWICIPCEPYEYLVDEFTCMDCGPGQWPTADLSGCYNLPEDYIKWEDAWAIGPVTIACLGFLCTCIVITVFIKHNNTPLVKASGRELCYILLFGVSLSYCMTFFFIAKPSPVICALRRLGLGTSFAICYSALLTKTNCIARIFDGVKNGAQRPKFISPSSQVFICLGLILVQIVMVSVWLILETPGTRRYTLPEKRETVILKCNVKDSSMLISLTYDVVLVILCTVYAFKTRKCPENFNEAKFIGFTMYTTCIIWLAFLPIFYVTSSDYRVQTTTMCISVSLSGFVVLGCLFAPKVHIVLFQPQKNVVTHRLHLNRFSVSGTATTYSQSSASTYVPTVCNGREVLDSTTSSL

`Cc1cc(-c2cccc(C3=Nc4cc(C)c(C(F)(F)F)cc4NC(=O)C3)c2)cc(C)n1`: the IC50 was determined as 0.296 µM in data set [1] and 0.27 µM in data set [2].

Broadly, the inhibition is the relative decrease from the control value, in per cent. Turning to `COc1ccc(C#Cc2ccc(C(=O)N3CCCC(O)C3)cc2)cc1` (centres undefined), the IC50 in data set [3] (read-out: IC50) was found to be 2.5 µM. For the same compound, the inhibition in [4] is -1.1%.

As for `COc1ccc(C#Cc2ccc(C(=O)N3CCC[C@@H](C(=O)O)C3)cc2)cc1`, the IC50 in [3] (read-out: IC50) was more than 10 µM. In data set [4], the inhibition was determined as 16.4%.

`COc1ccc(C#Cc2ccc(C(=O)N3CCC(C)(O)CC3)cc2)cc1`: the IC50 in [3] (read-out: IC50) stood at 5 µM. Also, the inhibition in [4] is 4.4%.

The EC50 is the concentration at which the effect is half-maximal. For the compound `O=C(c1ccc(C#Cc2ccccc2)cc1)N1CCC(O)CC1`, the EC50 in data set [5] stood at 0.27 µM. In addition, the IC50 in data set [6] is more than 10 µM.

`COc1ccc(C#Cc2ccc(C(=O)N3CCCC(CO)C3)cc2)cc1` (racemic): in [3] (read-out: IC50), the IC50 was 2.1 µM. In [4], the inhibition came out at 0.5%.

On to `COc1ccc(C#Cc2ccc(C(=O)N3CCC[C@H](CO)C3)cc2)cc1`, for which the IC50 in data set [1] was more than 10 µM; in [3] (read-out: pIC50 (converted)) it was 3.24 µM. Further, the inhibition in [4] is -1.7%.

Consider `COc1ccc(C#Cc2ccc(C(=O)N3CCC[C@H](C(=O)O)C3)cc2)cc1`, for which, in [3] (read-out: IC50), the IC50 was 5.7 µM. Moreover, the inhibition in data set [4] turned out to be 2.2%.

As to `CCN1CCC[C@H]1CC(=O)c1ccc(C#Cc2ccc(OC)cc2)cc1`, in data set [3] (read-out: IC50), the IC50 is more than 10 µM. The inhibition in data set [4] came out at 9.6%.

In the case of `COc1ccc(C#Cc2ccc(C(=O)N3CCN(C(C)C)CC3)cc2)cc1`, the IC50 in data set [3] (read-out: IC50) is more than 10 µM. For the same compound, the inhibition in data set [4] was determined as 7.6%.

The term clearance denotes the volume of plasma or blood freed of the substance per unit of time. For orientation: fraction unbound means the share of the substance not bound to proteins or other matrix. For orientation: half-life means how long it takes for the measured level to halve. `COc1ccc(C#Cc2ccc(C(=O)N3CCC[C@@H](CO)C3)cc2)cc1`: the IC50 in data set [1] is more than 10 µM; against Cytochrome P450 1A2 it was more than 30 µM; in [3] (read-out: IC50), 1.5 µM; in data set [11] it was more than 10 µM; in data set [12] it was 0.66 µM; against Cytochrome P450 2D6 it was more than 30 µM. The IC50 at Cytochrome P450 2C9 and against Cytochrome P450 3A4 was more than 30 µM throughout. Further, in the data set on Nucleic Acid, the BPR amounted to 1.67. Further, the Ratio IC50 in [7] is 15. For the same compound, the Drug metabolism result in data set [8] and in data set [15] was “Active” in each case. Moreover, the clearance in data set [9] worked out at 33 mL/min/kg. Besides, the Vd in data set [10] was determined as 0.6 L/kg. Moreover, the EC50 in data set [13] was more than 10 µM. Further, the inhibition in data set [4] was -4.4%. Further, the concentration in the data set on Brain was 16.3 µM; with Plasma, 9.7 µM. Besides, the fraction unbound in data set [14] stood at 0.01; in [17], 0.02. The same compound showed a half-life in [16] of 16.8 min.

`COc1ccc(C#Cc2ccc(C(=O)N3CCC(O)CC3)cc2)cc1`: in data set [3] (read-out: IC50), the IC50 amounted to 3.8 µM. Besides, the inhibition in [4] came out at 10.4%.

Turning to `Clc1ccc(CN[C@H]2CCN(c3ncc(Br)cn3)C2)c(Cl)c1`, the IC50 in data set [18] is 0.19 µM; in [3] (read-out: IC50), 4.2 µM; in [19], more than 12.5 µM; in [20], 17 µM. The Ratio IC50 in data set [7] was found to be 4.
